Data: patent US11572369B2, “Bicyclic pyridine compositions and methods of using the same for cancer therapy” (UNIVERSITY OF SOUTH CAROLINA, priority 2019, dated 2023)

Columns and labels:
Test in all cases: KINOMEscan
Type in all cases: binding
Settings in all cases: 2000 nM
[1] = target: T1, CSNK1G1 (Homo sapiens, UniProt Q9HCP0)
T1 construct: DNA label; purchased DiscoveRx (KINOMEscan scanMAX panel)

[2] = target: T2, JAK2(JH1domain-catalytic) (Homo sapiens, UniProt O60674)
T2 construct: JAK2(JH1domain-catalytic); DNA label (for qPCR read-out); purchased DiscoveRx (KINOMEscan scanMAX panel)

[3] = target: T3, FLT4 (Homo sapiens, UniProt P35916)
T3 construct: purchased KINOMEscan (DiscoveRx)

[4] = target: ABL1(T315I)-nonphosphorylated (Homo sapiens, UniProt P00519, T315I)
[5] = target: T4, LIMK1 (Homo sapiens, UniProt P53667)
T4 construct: purchased KINOMEscan (DiscoveRx) panel service

[6] = target: T5, ADCK3 (Homo sapiens, UniProt Q8NI60)
T5 construct: purchased DiscoveRx (KINOMEscan scanMAX panel, service)

[7] = target: T6, BUB1 (Homo sapiens, UniProt O43683)
T6 construct: DNA label (for qPCR read-out); purchased KINOMEscan scanMAX panel (DiscoveRx)

[8] = target: T7, GRK4 (Homo sapiens, UniProt P32298)
T7 construct: DNA label (for qPCR read-out); purchased DiscoveRx (KINOMEscan scanMAX panel, contract assay)

[9] = target: T8, ACVR1B (Homo sapiens, UniProt P36896)
T8 construct: purchased DiscoveRx (KINOMEscan scanMAX panel, service)

[10] = target: ABL1(Q252H)-nonphosphorylated (Homo sapiens, UniProt P00519, Q252H)
[11] = target: T9, MLK3 (Homo sapiens, UniProt Q16584)
T9 construct: DNA label (qPCR read-out); purchased KINOMEscan scanMAX panel (DiscoveRx)

[12] = target: T10, PKAC-alpha (Homo sapiens, UniProt P17612)
T10 construct: DNA label (qPCR read-out); purchased KINOMEscan (DiscoveRx) panel

[13] = target: T11, BRAF(V600E) (Homo sapiens, UniProt P15056, V600E)
T11 construct: DNA label (for qPCR read-out); purchased KINOMEscan scanMAX panel (DiscoveRx)

[14] = target: T12, YANK2 (Homo sapiens, UniProt Q9NY57)
T12 construct: purchased KINOMEscan (DiscoveRx) panel service

[15] = target: T13, GAK (Homo sapiens, UniProt O14976)
T13 construct: purchased KINOMEscan (DiscoveRx)

[16] = target: ABL1-nonphosphorylated (Homo sapiens, UniProt P00519)
[17] = target: T14, LKB1 (Homo sapiens, UniProt Q15831)
T14 construct: purchased KINOMEscan (DiscoveRx) panel service

[18] = target: T15, CAMK1G (Homo sapiens, UniProt Q96NX5)
T15 construct: DNA label (qPCR read-out); purchased KINOMEscan (ScanMAX panel service)

[19] = target: T16, (Homo sapiens, UniProt P20794)
T16 construct: DNA label (qPCR read-out); purchased DiscoverX (KINOMEscan service)

[20] = target: T17, ROCK2 (Homo sapiens, UniProt O75116)
T17 construct: DNA label (qPCR read-out); purchased DiscoveRx (KINOMEscan ScanMAX panel)

[21] = target: T18, BIKE (Homo sapiens, UniProt Q9NSY1)
T18 construct: DNA label (qPCR read-out); purchased KINOMEscan scanMAX panel (DiscoveRx)

[22] = target: MARK3 (Homo sapiens, UniProt P27448)
[23] = target: T19, HCK (Homo sapiens, UniProt P08631)
T19 construct: DNA label (for qPCR read-out); purchased DiscoveRx (KINOMEscan scanMAX panel, contract assay)

[24] = target: T20, MEK5 (Homo sapiens, UniProt Q13163)
T20 construct: purchased DiscoveRx (KINOMEscan scanMAX panel, service)

[25] = target: T21, CAMK2B (Homo sapiens, UniProt Q13554)
T21 construct: DNA label (qPCR read-out); purchased KINOMEscan (ScanMAX panel service)

[26] = target: T22, EGFR (Homo sapiens, UniProt P00533)
T22 construct: purchased DiscoveRx (KINOMEscan scanMAX panel)

[27] = target: T23, CDKL1 (Homo sapiens, UniProt Q00532)
T23 construct: purchased DiscoverX (KINOMEscan service)

[28] = target: T24, EPHB4 (Homo sapiens, UniProt P54760)
T24 construct: purchased DiscoveRx (KINOMEscan scanMAX panel)

[29] = target: T25, BRSK2 (Homo sapiens, UniProt Q8IWQ3)
T25 construct: DNA label (for qPCR read-out); purchased KINOMEscan scanMAX panel (DiscoveRx)

[30] = target: T26, CAMK1B (Homo sapiens, UniProt Q6P2M8)
T26 construct: DNA label (qPCR read-out); purchased KINOMEscan (ScanMAX panel service)

[31] = target: T27, TNIK (Homo sapiens, UniProt Q9UKE5)
T27 construct: DNA label (qPCR read-out); purchased KINOMEscan (DiscoveRx) ScanMAX panel

[32] = target: T28, CDKL5 (Homo sapiens, UniProt O76039)
T28 construct: DNA label (for qPCR read-out); purchased DiscoveRx (KINOMEscan scanMAX service)

[33] = target: T29, BMX (Homo sapiens, UniProt P51813)
T29 construct: DNA label (for qPCR read-out); purchased KINOMEscan scanMAX panel (DiscoveRx)

[34] = target: T30, PKN2 (Homo sapiens, UniProt Q16513)
T30 construct: DNA label (qPCR read-out); purchased KINOMEscan (DiscoveRx) panel

[35] = target: T31, GRK2 (Homo sapiens, UniProt P25098)
T31 construct: DNA label (for qPCR read-out); purchased DiscoveRx (KINOMEscan scanMAX panel, contract assay)
T31 sequence (P25098 whole entry): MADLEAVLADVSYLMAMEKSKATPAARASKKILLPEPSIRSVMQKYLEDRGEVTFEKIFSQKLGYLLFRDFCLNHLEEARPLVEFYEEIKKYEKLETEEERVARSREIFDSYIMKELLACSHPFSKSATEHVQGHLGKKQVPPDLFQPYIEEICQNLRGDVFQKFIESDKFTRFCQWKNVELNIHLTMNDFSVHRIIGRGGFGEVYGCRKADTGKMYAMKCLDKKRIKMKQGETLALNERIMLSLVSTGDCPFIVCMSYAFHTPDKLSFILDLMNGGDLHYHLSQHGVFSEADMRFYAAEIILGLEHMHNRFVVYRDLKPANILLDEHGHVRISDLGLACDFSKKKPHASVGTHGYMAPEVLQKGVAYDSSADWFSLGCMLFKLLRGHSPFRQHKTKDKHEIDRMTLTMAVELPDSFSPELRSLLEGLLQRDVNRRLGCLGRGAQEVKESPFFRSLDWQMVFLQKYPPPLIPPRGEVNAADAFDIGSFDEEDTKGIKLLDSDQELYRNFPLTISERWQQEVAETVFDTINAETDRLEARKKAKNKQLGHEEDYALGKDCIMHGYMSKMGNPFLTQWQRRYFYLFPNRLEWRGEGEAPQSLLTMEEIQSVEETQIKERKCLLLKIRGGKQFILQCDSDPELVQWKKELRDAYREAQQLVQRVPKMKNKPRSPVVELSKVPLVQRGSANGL

T14 sequence (Q15831 whole entry): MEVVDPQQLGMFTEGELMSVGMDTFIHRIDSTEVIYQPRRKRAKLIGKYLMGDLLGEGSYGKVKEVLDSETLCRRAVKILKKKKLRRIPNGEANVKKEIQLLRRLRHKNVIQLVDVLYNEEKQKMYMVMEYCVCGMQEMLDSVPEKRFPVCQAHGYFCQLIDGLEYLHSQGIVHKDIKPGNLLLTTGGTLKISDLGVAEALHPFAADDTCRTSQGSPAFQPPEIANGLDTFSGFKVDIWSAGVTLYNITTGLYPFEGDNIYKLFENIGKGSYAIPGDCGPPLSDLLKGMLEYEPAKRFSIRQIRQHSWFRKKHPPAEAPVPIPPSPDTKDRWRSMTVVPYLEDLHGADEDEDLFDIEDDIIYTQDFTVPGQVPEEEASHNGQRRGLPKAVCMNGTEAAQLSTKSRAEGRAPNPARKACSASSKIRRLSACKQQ
T22 sequence (P00533 25-1210): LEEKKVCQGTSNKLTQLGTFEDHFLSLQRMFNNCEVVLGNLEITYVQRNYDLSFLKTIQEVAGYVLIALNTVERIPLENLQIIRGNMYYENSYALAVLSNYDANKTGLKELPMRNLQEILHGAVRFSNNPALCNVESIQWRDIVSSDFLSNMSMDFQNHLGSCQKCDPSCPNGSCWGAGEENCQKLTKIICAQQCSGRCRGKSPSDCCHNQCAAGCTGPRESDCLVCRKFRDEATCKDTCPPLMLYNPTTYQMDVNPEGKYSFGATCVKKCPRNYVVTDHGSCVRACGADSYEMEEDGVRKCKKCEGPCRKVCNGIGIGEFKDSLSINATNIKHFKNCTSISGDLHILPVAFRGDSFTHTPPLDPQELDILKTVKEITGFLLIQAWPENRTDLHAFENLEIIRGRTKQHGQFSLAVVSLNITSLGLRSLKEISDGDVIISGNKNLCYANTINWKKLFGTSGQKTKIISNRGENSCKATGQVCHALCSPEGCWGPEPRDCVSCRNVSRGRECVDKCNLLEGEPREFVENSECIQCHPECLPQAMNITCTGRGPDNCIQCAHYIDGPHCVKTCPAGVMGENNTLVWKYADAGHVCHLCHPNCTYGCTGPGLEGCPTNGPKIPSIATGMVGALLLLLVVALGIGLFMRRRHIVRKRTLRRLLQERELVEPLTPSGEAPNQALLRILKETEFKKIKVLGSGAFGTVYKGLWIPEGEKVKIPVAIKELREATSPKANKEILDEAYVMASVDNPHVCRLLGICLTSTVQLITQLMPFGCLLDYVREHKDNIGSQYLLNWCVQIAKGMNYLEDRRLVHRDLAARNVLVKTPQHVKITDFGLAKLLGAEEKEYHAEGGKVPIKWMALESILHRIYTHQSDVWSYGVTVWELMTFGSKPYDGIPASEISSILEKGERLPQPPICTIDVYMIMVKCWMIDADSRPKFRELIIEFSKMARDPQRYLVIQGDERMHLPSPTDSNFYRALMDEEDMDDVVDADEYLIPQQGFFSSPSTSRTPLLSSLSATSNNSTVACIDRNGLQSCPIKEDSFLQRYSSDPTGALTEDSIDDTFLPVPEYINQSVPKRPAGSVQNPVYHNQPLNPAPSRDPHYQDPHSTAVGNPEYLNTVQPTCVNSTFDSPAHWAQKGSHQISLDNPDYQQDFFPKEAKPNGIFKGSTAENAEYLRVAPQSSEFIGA
T17 sequence (O75116 whole entry): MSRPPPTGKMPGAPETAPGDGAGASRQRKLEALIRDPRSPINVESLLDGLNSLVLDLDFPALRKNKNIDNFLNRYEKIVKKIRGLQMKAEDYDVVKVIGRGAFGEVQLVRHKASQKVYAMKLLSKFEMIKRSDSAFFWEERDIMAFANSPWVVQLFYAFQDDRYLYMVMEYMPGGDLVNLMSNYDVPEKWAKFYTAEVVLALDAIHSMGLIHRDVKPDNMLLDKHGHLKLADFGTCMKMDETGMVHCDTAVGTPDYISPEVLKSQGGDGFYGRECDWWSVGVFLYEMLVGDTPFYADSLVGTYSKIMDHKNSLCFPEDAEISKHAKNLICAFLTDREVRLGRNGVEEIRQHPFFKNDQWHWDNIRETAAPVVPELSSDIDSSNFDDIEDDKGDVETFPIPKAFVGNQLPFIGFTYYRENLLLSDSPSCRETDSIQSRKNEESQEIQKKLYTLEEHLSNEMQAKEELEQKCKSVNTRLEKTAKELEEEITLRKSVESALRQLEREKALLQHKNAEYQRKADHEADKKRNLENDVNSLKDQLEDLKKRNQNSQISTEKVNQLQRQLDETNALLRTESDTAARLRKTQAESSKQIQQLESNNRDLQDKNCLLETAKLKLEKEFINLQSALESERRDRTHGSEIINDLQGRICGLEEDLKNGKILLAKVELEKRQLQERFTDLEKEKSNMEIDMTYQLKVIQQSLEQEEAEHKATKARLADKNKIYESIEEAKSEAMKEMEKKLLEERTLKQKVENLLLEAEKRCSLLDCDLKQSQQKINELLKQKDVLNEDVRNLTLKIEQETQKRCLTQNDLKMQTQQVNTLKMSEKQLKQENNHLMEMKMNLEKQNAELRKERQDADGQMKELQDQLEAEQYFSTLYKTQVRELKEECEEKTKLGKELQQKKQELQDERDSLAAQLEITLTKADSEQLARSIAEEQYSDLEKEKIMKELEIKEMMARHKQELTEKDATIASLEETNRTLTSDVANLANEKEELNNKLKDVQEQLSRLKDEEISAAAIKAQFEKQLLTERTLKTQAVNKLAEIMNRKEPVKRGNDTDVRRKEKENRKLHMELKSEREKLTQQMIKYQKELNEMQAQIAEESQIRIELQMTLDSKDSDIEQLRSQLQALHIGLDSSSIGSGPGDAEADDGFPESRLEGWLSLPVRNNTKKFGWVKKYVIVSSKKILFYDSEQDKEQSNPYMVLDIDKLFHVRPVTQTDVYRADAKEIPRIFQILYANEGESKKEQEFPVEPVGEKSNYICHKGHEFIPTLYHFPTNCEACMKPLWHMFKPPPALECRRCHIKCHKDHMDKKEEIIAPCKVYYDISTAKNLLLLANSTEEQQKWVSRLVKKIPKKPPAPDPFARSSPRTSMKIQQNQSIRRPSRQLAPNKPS
Chain of MARK3 (P27448 whole entry): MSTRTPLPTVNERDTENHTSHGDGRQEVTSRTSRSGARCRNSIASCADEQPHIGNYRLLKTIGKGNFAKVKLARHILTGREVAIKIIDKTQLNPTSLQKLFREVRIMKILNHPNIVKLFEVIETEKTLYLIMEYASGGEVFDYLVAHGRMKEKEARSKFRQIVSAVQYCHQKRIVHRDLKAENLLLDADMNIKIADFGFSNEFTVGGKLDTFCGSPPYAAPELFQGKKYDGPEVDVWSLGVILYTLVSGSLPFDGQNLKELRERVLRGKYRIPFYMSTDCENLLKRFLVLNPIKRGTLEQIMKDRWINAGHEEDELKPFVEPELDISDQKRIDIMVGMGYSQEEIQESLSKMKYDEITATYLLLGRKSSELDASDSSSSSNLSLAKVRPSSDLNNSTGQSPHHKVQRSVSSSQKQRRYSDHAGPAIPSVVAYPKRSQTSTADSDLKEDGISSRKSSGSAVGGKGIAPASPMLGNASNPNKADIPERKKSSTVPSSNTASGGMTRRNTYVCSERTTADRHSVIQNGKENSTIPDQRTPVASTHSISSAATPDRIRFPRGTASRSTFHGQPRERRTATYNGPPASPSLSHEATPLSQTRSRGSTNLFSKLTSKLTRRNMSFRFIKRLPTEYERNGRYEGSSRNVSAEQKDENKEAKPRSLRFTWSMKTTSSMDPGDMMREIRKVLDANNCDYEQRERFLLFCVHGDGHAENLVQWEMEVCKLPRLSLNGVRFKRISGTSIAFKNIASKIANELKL
T26 sequence (Q6P2M8 whole entry): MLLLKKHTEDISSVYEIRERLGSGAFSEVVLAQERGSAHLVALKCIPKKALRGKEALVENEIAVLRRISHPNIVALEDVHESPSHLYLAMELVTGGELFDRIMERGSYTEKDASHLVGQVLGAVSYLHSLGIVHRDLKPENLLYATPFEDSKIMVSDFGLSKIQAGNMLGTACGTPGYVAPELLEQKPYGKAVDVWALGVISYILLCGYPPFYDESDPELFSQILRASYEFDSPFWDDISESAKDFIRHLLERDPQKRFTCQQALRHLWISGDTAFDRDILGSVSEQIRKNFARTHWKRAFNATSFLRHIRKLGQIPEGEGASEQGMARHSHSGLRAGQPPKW
T2 sequence (O60674 849-1124 limits assumed): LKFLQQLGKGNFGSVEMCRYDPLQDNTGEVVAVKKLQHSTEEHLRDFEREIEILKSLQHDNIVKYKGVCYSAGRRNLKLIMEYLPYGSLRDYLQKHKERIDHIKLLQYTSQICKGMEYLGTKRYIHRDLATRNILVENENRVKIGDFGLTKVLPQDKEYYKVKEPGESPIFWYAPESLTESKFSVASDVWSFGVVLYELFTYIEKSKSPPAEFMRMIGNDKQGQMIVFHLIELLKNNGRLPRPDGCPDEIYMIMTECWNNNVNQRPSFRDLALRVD

Row | Compound | % Ctrl [1] | % Ctrl [2] | % Ctrl [3] | % Ctrl [4] | % Ctrl [5] | % Ctrl [6] | % Ctrl [7] | % Ctrl [8] | % Ctrl [9] | % Ctrl [10] | % Ctrl [11] | % Ctrl [12] | % Ctrl [13] | % Ctrl [14] | % Ctrl [15] | % Ctrl [16] | % Ctrl [17] | % Ctrl [18] | % Ctrl [19] | % Ctrl [20] | further results
1 | CN(C)C(=O)c1ccc(N2CCCN(c3ccnc4sc(C(N)=O)c(N)c34)CC2)cc1 [15u, 3-amino-4-(4-(4-(dimethylcarbamoyl)phenyl)-1,4-diazepan-1-yl)thieno[2,3-b]pyridine-2-carboxamide] | 90 % Ctrl | 100 % Ctrl | 92 % Ctrl | 100 % Ctrl | 100 % Ctrl | 90 % Ctrl | 88 % Ctrl | 62 % Ctrl | 100 % Ctrl | 94 % Ctrl | 99 % Ctrl | 95 % Ctrl | 100 % Ctrl | 89 % Ctrl | 88 % Ctrl | 95 % Ctrl | 100 % Ctrl | 99 % Ctrl | 100 % Ctrl | 100 % Ctrl | % Ctrl [21]: 100 % Ctrl; % Ctrl [22]: 98 % Ctrl; % Ctrl [23]: 96 % Ctrl; % Ctrl [24]: 86 % Ctrl; % Ctrl [25]: 92 % Ctrl; % Ctrl [26]: 100 % Ctrl; % Ctrl [27]: 100 % Ctrl; % Ctrl [28]: 100 % Ctrl; % Ctrl [29]: 100 % Ctrl; % Ctrl [30]: 100 % Ctrl; % Ctrl [31]: 100 % Ctrl; % Ctrl [32]: 100 % Ctrl; % Ctrl [33]: 93 % Ctrl; % Ctrl [34]: 100 % Ctrl; % Ctrl [35]: 88 % Ctrl
2 | [2H]C([2H])([2H])N(C(=O)c1ccc(N2CCCN(c3ccnc4sc(C(N)=O)c(N)c34)CC2)cc1)C([2H])([2H])[2H] [15u_D6, 3-amino-4-(4-(4-(bis(methyl-d3)carbamoyl)phenyl)-1,4-diazepan-1-yl)thieno[2,3-b]pyridine-2-carboxamide] | 80 % Ctrl | 93 % Ctrl | 98 % Ctrl | 85 % Ctrl | 100 % Ctrl | 100 % Ctrl | 80 % Ctrl | 98 % Ctrl | 99 % Ctrl | 83 % Ctrl | 100 % Ctrl | 100 % Ctrl | 84 % Ctrl | 84 % Ctrl | 94 % Ctrl | 78 % Ctrl | 87 % Ctrl | 99 % Ctrl | 91 % Ctrl | 80 % Ctrl | % Ctrl [21]: 96 % Ctrl; % Ctrl [22]: 100 % Ctrl; % Ctrl [23]: 96 % Ctrl; % Ctrl [24]: 65 % Ctrl; % Ctrl [25]: 87 % Ctrl; % Ctrl [26]: 87 % Ctrl; % Ctrl [27]: 92 % Ctrl; % Ctrl [28]: 100 % Ctrl; % Ctrl [29]: 100 % Ctrl; % Ctrl [30]: 70 % Ctrl; % Ctrl [31]: 91 % Ctrl; % Ctrl [32]: 84 % Ctrl; % Ctrl [33]: 100 % Ctrl; % Ctrl [34]: 100 % Ctrl; % Ctrl [35]: 70 % Ctrl
